Data from ChEMBL document CHEMBL1126233, “Derivatives of naphthalimide: new potent conformationally restricted antagonists of 5-HT3 receptors” (Bioorg Med Chem Lett, 1992).

Columns and labels:
[1] = biological target: T1, Serotonin 3 (5-HT3) receptor (Rattus norvegicus, UniProt P35563+Q9JJ16); assay: Binding affinity at 5-hydroxytryptamine 3 receptor in rat posterior cortex by [3H]-BRL 43694 displacement.; type: tissue-based, Brain
T1 sequence (P35563 whole entry): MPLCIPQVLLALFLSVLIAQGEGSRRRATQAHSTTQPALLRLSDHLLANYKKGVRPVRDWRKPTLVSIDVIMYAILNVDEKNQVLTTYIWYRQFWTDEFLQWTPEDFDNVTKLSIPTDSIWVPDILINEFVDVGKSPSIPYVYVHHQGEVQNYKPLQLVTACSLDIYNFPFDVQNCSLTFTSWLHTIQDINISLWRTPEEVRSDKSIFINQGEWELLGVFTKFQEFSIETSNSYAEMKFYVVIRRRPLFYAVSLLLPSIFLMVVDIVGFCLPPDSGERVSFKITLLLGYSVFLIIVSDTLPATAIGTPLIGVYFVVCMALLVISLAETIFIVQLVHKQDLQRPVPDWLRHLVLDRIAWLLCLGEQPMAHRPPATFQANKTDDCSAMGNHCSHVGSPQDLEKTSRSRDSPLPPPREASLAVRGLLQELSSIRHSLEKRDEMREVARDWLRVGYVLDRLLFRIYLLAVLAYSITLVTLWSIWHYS
T1 sequence (Q9JJ16 whole entry): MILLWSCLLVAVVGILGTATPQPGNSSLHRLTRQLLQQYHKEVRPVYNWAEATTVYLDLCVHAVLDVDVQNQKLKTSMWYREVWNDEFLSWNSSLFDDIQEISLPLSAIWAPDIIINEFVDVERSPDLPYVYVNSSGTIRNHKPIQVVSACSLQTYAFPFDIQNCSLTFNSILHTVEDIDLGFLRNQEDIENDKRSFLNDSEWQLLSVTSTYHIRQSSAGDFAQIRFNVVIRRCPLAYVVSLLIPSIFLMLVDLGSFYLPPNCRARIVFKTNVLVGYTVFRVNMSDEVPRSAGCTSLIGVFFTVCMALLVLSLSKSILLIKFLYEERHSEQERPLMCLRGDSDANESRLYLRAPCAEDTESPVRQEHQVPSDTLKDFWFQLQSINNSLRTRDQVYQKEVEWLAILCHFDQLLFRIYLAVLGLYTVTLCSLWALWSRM

Rattus norvegicus [2] = assay: Antagonism of the bradycardia induced by iv injection of 5-HT(10-30 ug/kg) was evaluated by the compound administration in rat; 3-8; type: functional; conditions: read-out: ID50 (the source's name)
Rattus norvegicus [3] = assay: Antagonism of the bradycardia induced by iv injection of 5-HT(10-30 ug/kg) was evaluated by the compound administration in rat; 0.05-0.75; type: functional; conditions: read-out: ID50 (the source's name)
Rattus norvegicus [4] = assay: Antagonism of the bradycardia induced by iv injection of 5-HT(10-30 ug/kg) was evaluated by the compound administration in rat; 8-55; type: functional; conditions: read-out: ID50 (the source's name)
Rattus norvegicus [5] = assay: Antagonism of the bradycardia induced by iv injection of 5-HT(10-30 ug/kg) was evaluated by the compound administration in rat; type: functional; conditions: read-out: ID50 (the source's name)
Rattus norvegicus [6] = assay: Antagonism of the bradycardia induced by iv injection of 5-HT(10-30 ug/kg) was evaluated by the compound administration in rat; 3.8-8.7; type: functional; conditions: read-out: ID50 (the source's name)
Rattus norvegicus [7] = assay: Antagonism of the bradycardia induced by iv injection of 5-HT(10-30 ug/kg) was evaluated by the compound administration in rat; 2.5-3.9; type: functional; conditions: read-out: ID50 (the source's name)
Rattus norvegicus [8] = assay: Antagonism of the bradycardia induced by iv injection of 5-HT(10-30 ug/kg) was evaluated by the compound administration in rat; 12-55; type: functional; conditions: read-out: ID50 (the source's name)
Rattus norvegicus [9] = assay: Antagonism of the bradycardia induced by iv injection of 5-HT(10-30 ug/kg) was evaluated by the compound administration in rat; 1.7-74; type: functional; conditions: read-out: ID50 (the source's name)
Rattus norvegicus [10] = assay: Antagonism of the bradycardia induced by iv injection of 5-HT(10-30 ug/kg) was evaluated by the compound administration in rat; 81-615; type: functional; conditions: read-out: ID50 (the source's name)
Rattus norvegicus [11] = assay: Antagonism of the bradycardia induced by iv injection of 5-HT(10-30 ug/kg) was evaluated by the compound administration in rat; 0.7-3.6; type: functional; conditions: read-out: ID50 (the source's name)
Rattus norvegicus [12] = assay: Antagonism of the bradycardia induced by iv injection of 5-HT(10-30 ug/kg) was evaluated by the compound administration in rat; 82-190; type: functional; conditions: read-out: ID50 (the source's name)
Rattus norvegicus [13] = assay: Antagonism of the bradycardia induced by iv injection of 5-HT(10-30 ug/kg) was evaluated by the compound administration in rat; 0.3-3.4; type: functional; conditions: read-out: ID50 (the source's name)
Rattus norvegicus [14] = assay: Antagonism of the bradycardia induced by iv injection of 5-HT(10-30 ug/kg) was evaluated by the compound administration in rat; 52-205; type: functional; conditions: read-out: ID50 (the source's name)

Row | Compound | Ki [1] [nM] | also measured
1 | O=C1c2cccc3c([N+](=O)[O-])ccc(c23)C(=O)N1C1CN2CCC1CC2 (centres undefined) | 31 | ED50 (Rattus norvegicus [2]): 0.00525 mg/kg
2 | COc1cc(N)c(Cl)cc1C(=O)N[C@@H]1CN2CCC1CC2 | 0.2 | ED50 (Rattus norvegicus [3]): 0.0002 mg/kg
3 | Nc1ccc2c3c(cccc13)C(=O)N([C@@H]1CN3CCC1CC3)C2=O | 23.5 | ED50 (Rattus norvegicus [4]): 0.021 mg/kg
4 | O=c1[nH]c2ccc(Cl)cc2c(=O)n1C1CN2CCC1CC2 (centres undefined) | 30 | ED50 (Rattus norvegicus [5]): 0.08 mg/kg
5 | O=C1c2cccc3cccc(c23)C(=O)N1[C@H]1CN2CCC1CC2 | 0.9 | ED50 (Rattus norvegicus [6]): 0.0057 mg/kg
6 | Nc1ccc2c3c(cccc13)C(=O)N(C1CN3CCC1CC3)C2=O (centres undefined) | 0.5 | ED50 (Rattus norvegicus [7]): 0.003 mg/kg
7 | COc1ccccc1C(=O)NC1CN2CCC1CC2 (centres undefined) | 22 | ED50 (Rattus norvegicus [8]): 0.025 mg/kg
8 | O=C1c2cccc3cccc(c23)C(=O)N1C1CN2CCC1CC2 (centres undefined) | 2.7 | ED50 (Rattus norvegicus [9]): 0.011 mg/kg
9 | CN1C2CCC1CC(N1C(=O)c3cccc4cccc(c34)C1=O)C2 (centres undefined) | 374 | ED50 (Rattus norvegicus [5]): > 0.25 mg/kg
10 | CN1CCC(N2C(=O)c3cccc4cccc(c34)C2=O)CC1 | 15 | ED50 (Rattus norvegicus [5]): 0.5 mg/kg
11 | O=C1c2cccc3cccc(c23)C(=O)N1[C@@H]1CN2CCC1CC2 | 61 | ED50 (Rattus norvegicus [10]): 0.224 mg/kg
12 | O=C1c2cccc3cccc(c23)CN1[C@@H]1CN2CCC1CC2 | 2.2 | 
13 | Nc1ccc2c3c(cccc13)C(=O)N([C@H]1CN3CCC1CC3)C2=O | 0.15 | ED50 (Rattus norvegicus [11]): 0.0016 mg/kg
14 | O=C1c2cccc3c(Cl)ccc(c23)C(=O)N1C1CN2CCC1CC2 (centres undefined) | 14 | ED50 (Rattus norvegicus [12]): 0.125 mg/kg
15 | COc1cc(N)c(Cl)cc1C(=O)N[C@H]1CN2CCC1CC2 [(R)ZACOPRIDE] | 2.6 | ED50 (Rattus norvegicus [13]): 0.001 mg/kg
16 | O=C1c2cccc3cccc(c23)CN1[C@H]1CN2CCC1CC2 | 2.3 | 
17 | O=c1[nH]c2ccccc2c(=O)n1C1CN2CCC1CC2 (centres undefined) | 80 | ED50 (Rattus norvegicus [14]): 0.103 mg/kg
18 | O=C1c2cccc3c(Br)ccc(c23)C(=O)N1C1CN2CCC1CC2 (centres undefined) | 41 | ED50 (Rattus norvegicus [5]): > 0.25 mg/kg
